Results: patent US20210154271A1, “CORNEAL EPITHELIAL CELL CHEMOTAXIS PROMOTER” (SHIODA LIFE SCIENCE INC., priority 2018, published 2021)
Ends that are not written are not given here.

What was measured:
HCEC-II cells [1] = assay: Analysis of cell growth ability (MTT-assay); assay type: cell-based, human
Description: (§1) Normal human corneal epithelial cells HCEC-II (manufactured by Kurabo Industries Ltd.) were cultured in an OcuLifeBM medium containing OcuLifeLifeFactor (both manufactured by Kurashiki Spinning Co., Ltd.) at 37° C., in the presence of 5% CO2.
HCEC-II cells were seeded in 96-well plates and cultured for 24 h. Subsequently, PACAP alone, or PACAP and AraC (cytarabine) were added. AraC (cytarabine) is a cytostatic agent. After the addition of these agents, the cell growth ability was analyzed by measuring the number of live cells from the value of absorbance at 570 nm using MTT cell growth kit I (manufactured by Roche Life Science Co., Ltd.). The reference wavelength was set at 650 nm.
The effects of PACAP are either due to 1) promoting cell growth, 2) promoting cell chemotaxis, or 3) promoting both cell growth and chemotaxis. To elucidate which of these could be caused, cell growth on days 1 and 4 after adding various concentrations of PACAP (10^−9 M to 10^−13 M) were analyzed by MTT-assay.

[2] = test system: model mice with injured corneas; assay: Instillation of PACAP receptor antagonists on model mice with injured corneas; assay type: in vivo, mouse
Text: Next, to investigate which types of receptors are involved in healing-promoting effects of injured corneas by PACAP, the inventors performed an instillation experiment of PACAP receptor antagonists (PACAP6-38, VIP6-28). PACAP6-38 is an antagonist of PAC1R and VPAC2R. VIP6-28 is an antagonist of VPAC1R and VPAC2R.
In addition to the same operations as the instillation experiment in Example 5, PACAP6-38 (antagonist) (10^−9 M) or VIP6-28 (antagonist) (10^−9 M) was instilled immediately before instillation of PACAP and saline. Instillation of PACAP and saline ware performed every 2 hours.
Following four groups were created; the saline-only-instilled group, the PACAP-only-instilled group, the group instilled saline and an antagonist simultaneously, the group instilled PACAP and an antagonist simultaneously.
FIG. 10A is the result of PACAP6-38, and FIG. 10B is the result of VIP6-28. In FIG. 10, “saline” indicates the saline-only-instilled group. “PACAP” indicates the PACAP-only-instilled group. “PACAP6-38” or “VIP6-28” indicates the group instilled saline and an antagonist simultaneously. “PACAP6-38+PACAP” or “VIP6-28+PACAP” indicates the group instilled PACAP and an antagonist simultaneously.
As well as FIG. 9C, the area of the injured site of the cornea immediately after injury to the cornea (0 hour) is set as 100%.

[3] = test system: Normal human corneal epithelial cells HCEC-II; assay: Scratch assay on HCEC-II cells; assay type: cell-based
Description: as §1
Wound-healing-promoting effects of PACAP were evaluated by scratch assay. HCEC-II cells were seeded in 24-well plates, cultured, and then wounded by a CELL Scratcher scratch stick (manufactured by Asahi Glass Co., Ltd.) (between a dotted line and a dotted line in FIG. 1).
Immediately after wounding, PACAP38 alone or PACAP38 and AraC were added, and cells infiltrating the wounded area were observed.
(§2) Outcomes of scratch assay and BrdU labeling were evaluated as following. Images were acquired by BZ-X700 (Keyence Inc.), and then quantitatively analyzed using the analysis applications (hybrid cell counts, macro cell counts) (Keyence Inc.).

HCEC-II cells [4] = assay: BrdU labeling of dividing cells; assay type: cell-based, human; conditions: 18 hours after adding PACAP (FIGS. 4A, 4B and 5)
Description: Post-wounding dividing cells were observed by labeling with BrdU Labeling and Detection Kit I (Roche).
as §2

[5] = test system: model mice with injured corneas; assay: PACAP instillation on model mice with injured corneas; assay type: in vivo, mouse (C57BL/6J)
Description: To study the healing effects of PACAP instillation on an injured site of a corneal, the inventors created model mice with injured corneas. Injured sites were created by marking a cornea of a mouse (C57BL/6J, male, 8-12 weeks old) with a 1-mm-diameter biopsy punch and detaching corneal epithelia within the marks with tweezers. At the injured sites, 2 μL of 10^−9 M PACAP, 10^−11 M PACAP, 10^−13 M PACAP, or saline was instilled every 2 hours for a total of seven times up to 12 hours later. In addition, the injured sites were visualized by instilling 2 μL of 0.1% fluorescein (a fluorescent colorant) in a total of 3 times after 0, 12, and 24 hours, and photographing was performed.
In addition, eyeballs at after 0 and 12 hours were removed, and tissue sections were made after paraffin embedding, followed by hematoxylin and eosin staining (HE staining). From the captured fluorescent images, by using image analysis software (ImageJ), the area and the outer periphery of injured sites of corneas were measured when saline was instilled and when PACAP of the respective concentrations were instilled.
(§3) The area of the injured site of the cornea immediately after injury to the cornea (0 hour) is set as 100%.

[6] = test system: mice with lacrimal glands removed, injured corneas; assay: Corneal healing in mice with lacrimal glands removed; assay type: in vivo, mouse; conditions: LG−PACAP vs LG−saline, 10^−11 M PACAP, 12 hours after injuring, p<0.05 (FIG. 11)
Text: (§4) First, mice with lacrimal glands removed were generated. Under inhalation anesthesia with sevoflurane, the extraorbital lacrimal glands and lacrimal ducts of mice were removed. Both lacrimal glands were removed after the lacrimal ducts were removed to expose the intraorbital lacrimal glands. Then the skin was sutured and the mice were kept warm until awaking from anesthesia. The amount of tear secretion in mice before and after removal of lacrimal glands was confirmed by the cotton thread method.
FIG. 11 is a graph showing the measurement result of the area of injured sites of corneas (fluorescent area) of upon administration of saline or PACAP at 0, 12, and 24 hours after injuring of corneas of mice. The method and the frequency of administration of saline or PACAP were the same as in Example 5.
as §3
In FIG. 11, “LG+saline” indicates the result of saline administration to mice without lacrimal glands removed. “LG+PACAP” indicates the result of PACAP administration to mice without lacrimal glands removed. “LG−saline” indicates the result of saline administration to mice with lacrimal glands removed. “LG−PACAP” indicates the result of PACAP administration to mice with lacrimal glands removed. The concentration of PACAP is 10^−11 M.

[7] = test system: mice with lacrimal glands removed; assay: Tear secretion by the cotton thread method; assay type: in vivo, mouse; conditions: mice with lacrimal glands removed (not shown in figures)
Text: as §4

[8] = test system: SV40-human corneal epithelial cell line (HCEC); assay: In vitro scratch assay on monolayer sheets of human corneal cultured cells; assay type: cell-based; conditions: 10^−11 M PACAP, 6 hours after scratching, vs PBS-treated control group (FIG. 12B)
Description: To evaluate the corneal healing effects of PACAP in vitro, a scratch assay was performed using a human corneal epithelial cell line. A SV40-human corneal epithelial cell line (HCEC) was purchased from the Human Science Research Resource Bank (Health Science Research Resources Bank). Cells were cultured in a medium containing DMEM, 1×antibiotic-antifungal agent (manufactured by Thermo Fisher Scientific Co., Ltd.), and 10% fetal bovine serum (FBS). Cultures were performed at 37° C. in the presence of 5% CO2.
In invasion assays, a floating HCEC with 10^6 cells was seeded in 12-well plates. After 2 days of incubation, the confluent cell layer was cross-shaped wounded with plastic sticks. PBS or various types of PACAP (final concentrations: 10^−15 M, 10^−13 M, 10^−11 M, 10^−9 M, and 10^−7 M) were added to […]. Scratch sites (wounded sites) were photographed by Nicon Biostation CT (Nikon Co., Ltd.) at regular intervals. Areas of the scratch sites were measured by CL-Quant software (made by Nikon Inc.).
The area of the scratch site immediately after the scratch (0 hour) is set as 100%.

[9] = test system: eye of a rabbit with detached corneas; conditions: PACAP administered to eye, in comparison with controls; cited from earlier work
[10] = 10^−9 M PACAP and 15 μM AraC (FIG. 1A to C)

## Nc1ccn([C@@H]2O[C@H](CO)[C@@H](O)[C@@H]2O)c(=O)n1 [AraC, cytarabine, reference compound]
HCEC-II cells [1]; 15 μM AraC
  effect of AraC on the cell-growth-promoting effects of PACAP: almost completely suppressed

## PACAP6-38: PACAP receptor antagonist; antagonist of PAC1R and VPAC2R (FTDSYSRYRKQMAVKKYLAAVLGKRYKQRVKNK; ends and bridges not checked; UniProt P18509 137-169, looked up, fragment)
[2]; antagonist 10^−9 M instilled with PACAP, 12 hours after injuring, vs PACAP-only group, p<0.05 (FIG. 10A)
  effect of antagonist on PACAP-induced healing of injured corneas: significantly suppressed

## PACAP: Pituitary Adenylate Cyclase-Activating Polypeptide; PACAP38, 38 amino acid residues (Peptide Research Institute, Osaka) (HSDGIFTDSYSRYRKQMAVKKYLAAVLGKRYKQRVKNK; ends and bridges not checked; UniProt P18509 132-169, looked up)
[3]; [10]
  cell-infiltration compared with 10^−9 M PACAP alone: less
  cell-infiltration compared with controls: increased more than in controls
[3]; 10^−9 M PACAP in the presence of 15 μM AraC, compared to the control (FIG. 6)
  area of the wounded site at 18 h: increased
[3]; 10^−9 M PACAP, 4 days post-wounding, compared to controls (FIG. 1A, B)
  cellular infiltrates at the wounded site: more cellular infiltrates were observed at the wounded site
[3]; 10^−9 M PACAP, compared to controls (FIG. 2, 18 h)
  area of the wounded site: reduced
[3]; 10^−11 M PACAP in the presence of 15 μM AraC (FIG. 6)
  area of the wounded site at 18 h: reduced
HCEC-II cells [1]; 1 day after addition, 10^−9 M to 10^−13 M PACAP, relative to cells with no PACAP (FIG. 3)
  cell growth by MTT-assay: cells grew at any concentration
HCEC-II cells [1]; 4 days after addition, 10^−9 M to 10^−13 M PACAP (FIG. 3)
  cell growth by MTT-assay: the effect was remarkable
HCEC-II cells [4]
  number of BrdU positive (dividing) cells: an increase of number of BrdU positive cells
[5]; 10^−9 M PACAP instilled, 12 hours after injuring, vs saline group (FIG. 9C)
  area of the injured site of the cornea (fluorescent area): significantly smaller
[5]; 10^−9 M PACAP instilled, 12 hours after injuring, vs saline group (not shown in figures)
  periphery of the injured site of the cornea: significantly smaller
[5]; 10^−11 M PACAP instilled, 12 hours after injuring, vs saline group (FIG. 9C)
  area of the injured site of the cornea (fluorescent area): significantly smaller
[5]; 10^−11 M PACAP instilled, 12 hours after injuring, vs saline group (not shown in figures)
  periphery of the injured site of the cornea: significantly smaller
[5]; 12 and 24 hours after injuring, PACAP-instilled vs saline-instilled group (FIG. 9A)
  size of injured sites of corneas (fluorescence image): became smaller than those of the saline-instilled group
[5]; 12 hours after instillation (FIG. 9B)
  corneal epithelium in HE staining: the corneal epithelium was restored
[5]; all concentrations (10^−9, 10^−11, 10^−13 M), 24 hours after injuring, p<0.01 vs saline group (FIG. 9C)
  area of the injured site of the cornea (fluorescent area): significantly smaller
[5]; all concentrations, 24 hours after injuring (not shown in figures)
  periphery of the injured site of the cornea: significantly smaller
[5]; instillation, injured cornea area
  most effective concentration of PACAP: 10^−11 M
[6]
  area of injured sites of corneas (fluorescent area): became significantly smaller
[7]
  tear secretion after instillation: did not promote tear secretion
[8]
  area of the scratch site: significantly reduced
[9]
  restoration of corneal epithelium: accelerated

## VIP6-28: PACAP receptor antagonist; antagonist of VPAC1R and VPAC2R (FTDNYTRLRKQMAVKKYLNSILN; ends and bridges not checked; UniProt P01282 130-152, looked up, fragment)
[2]; antagonist 10^−9 M instilled with PACAP (FIG. 10B)
  effect of antagonist on PACAP-induced healing of injured corneas: not suppressed
